In US20240025903A1, “Bicyclic Compounds and Uses Thereof for the Treatment of Diseases” (Athira Pharma, Inc., priority 2020, published 2024):
Read-outs that look alike come from different tables or passages of the source.

Columns and labels:
In vivo pharmacokinetics = assay: In vivo pharmacokinetics; set-up: species or system Sprague-Dawley rats; details: both sexes, Sprague-Dawley, rat; for Tmax: plasma; for AUC: dose-corrected plasma AUC; for Cmax: dose-corrected plasma Cmax
Protocol: Administration of exemplary compounds by selected routes followed by blood collection and compound quantification in plasma was used to determine the pharmacokinetic (PK) profile of the compounds. Compounds were administered to mixed-sex Sprague-Dawley rats of at least 250 grams by dissolving the test compound in DMSO and then diluting the compound into an appropriate vehicle, either saline or saline and poly-ethylene glycol. Dosing was accomplished by either tail vein puncture (IV) or oral gavage (PO), and animals were administered compound according to their weight at 1 mL/kg. At selected intervals following administration (10, 20, 40, 60, 120, and 360 minutes), blood was collected by tail vein blood draw. Whole blood was then processed by centrifugation to produce plasma. Compound content in plasma samples was quantified by LC-MS/MS and compared to an internal standard and standard curves to determine concentration accurately. Plasma concentrations were then averaged for each time point and plotted as a function of time. Area under the curve was calculated by integration of the curve, Cmax was the highest concentration achieved in plasma, and Tmax was determined by the timing of Cmax.

[1] = Non-specific protein binding (rapid equilibrium dialysis); format: in vitro ADME, Sprague-Dawley rats; details: both sexes, Sprague-Dawley, RED device, 4-hour incubation at 37° C.
Protocol: Plasma and tissue exposures of exemplary compounds were scaled by their non-specific affinity for protein binding in target tissues or fluids to determine the fraction of compound available for interaction with the target. Non-specific binding was determined in blood plasma and brain homogenate collected from mixed-sex Sprague-Dawley rats.
Known concentrations of test compounds were mixed with plasma or brain homogenate and incubated in the donor chamber of a rapid equilibrium dialysis (RED) device with empty PBS buffer in the receiving chamber. After a 4-hour incubation at 37° C. in an orbital shaking incubator, compound in each chamber was quantified by LC-MS/MS. The unbound fraction (fu,tissue) was calculated using the following formula:
[formula] • where: • fu,tissue is the unbound fraction in the tissue; • fu,homogenate is the ratio of concentration in the buffer chamber to concentration in the sample chamber; and • D is the dilution factor used to produce the sample.

[2] = In vivo tissue distribution; set-up: species or system Sprague-dawley rats; details: rat
Protocol: The rate of distribution to target tissues is an important feature of therapeutic molecules. Tissue distribution of exemplary compounds was performed in mixed-sex Sprague-dawley rats. Test compounds were delivered via tail vein injection (IV) and tissues were collected at Tmax (10 minutes post administration). Animals were deeply anesthetized with isoflurane and whole blood was collected from the right atrium and processed by centrifugation to produce plasma. Animals were then fully perfused with PBS administered to the left ventricle to prevent blood contamination of tissues.
Tissues were collected and homogenized, and compound content in the target tissue was quantified by LC-MS/MS. Tissue distribution rates were determined by dividing the tissue concentration of compound by the plasma concentration and multiplying by 100.

[3] = test system: scopolamine-induced spatial memory deficit in rats; assay: Scopolamine-induced spatial memory deficit in the Morris water maze (compounds 2a and 6a); format: in vivo; details: rat, scopolamine 3 mg/kg IP, escape latency over 8 days, post-test p-value
Protocol: Exemplary compounds 2a and 6a were evaluated for their ability to reverse chemically-induced spatial memory deficits in rats in the Morris water maze. The water maze consists of a large round tank (diameter 2.1 m) filled with 26-28° C. water to a depth of −30 cm and the water was clouded with white paint. A round platform (13 cm diameter) was fixed such that it rested 2-3 cm below the surface of the water. High-contrast visual cues were placed around the tank to aid spatial orientation of test animals. Testing consisted of placing an animal into the water facing the tank wall at one of three randomly assigned starting locations and allowing the animal to swim and search for the hidden platform for up to 120 seconds. The time taken for the animal to locate the platform was recorded as the escape latency. Animals were tested 5 times per day with a 30 second rest period between trials. Testing was completed for a total of 8 consecutive days.
Animals were divided into groups (N=8 per group) depending on treatment. Control animals received only empty vehicle. Scopolamine groups received 3 mg/kg scopolamine dissolved in sterile saline by intraperitoneal (IP) injection 30 minutes prior to testing. Test compound groups received test compound at various concentrations by oral gavage (PO) dissolved in 48% sterile saline, 50% polyethylene glycol (PEG-400), and 2% DMSO 40 minutes prior to testing. Escape latencies were recorded for each animal for 5 trials each day for 8 consecutive days. Changes in escape latency curves were statistically analyzed by 2-way ANOVA with Bonferoni post-test.

[4] = IV (tail vein), read-out: TMAX IV
[5] = PO (oral gavage), read-out: TMAX PO
[6] = IV (tail vein), read-out: AUC IV
[7] = IV (tail vein), read-out: CMAX IV
[8] = PO (oral gavage), read-out: AUC PO
[9] = PO (oral gavage), read-out: CMAX PO
[10] = rat blood plasma, read-out: Unbound Fraction Plasma
[11] = rat brain homogenate, read-out: Unbound Fraction Brain

SMILES	Tmax (In vivo pharmacokinetics; [4])	Tmax (In vivo pharmacokinetics; [5])	AUC (In vivo pharmacokinetics; [6])	Cmax (In vivo pharmacokinetics; [7])	AUC (In vivo pharmacokinetics; [8])	Cmax (In vivo pharmacokinetics; [9])	fraction unbound at 4 h [1, 10]	fraction unbound at 4 h [1, 11]	Tissue Distribution (% Plasma exposure at 10 min post IV dose) Brain [2]	Tissue Distribution (% Plasma exposure at 10 min post IV dose) Cerebellum [2]	Tissue Distribution (% Plasma exposure at 10 min post IV dose) Cortex [2]	Tissue Distribution (% Plasma exposure at 10 min post IV dose) Hippocampus [2]	Tissue Distribution (% Plasma exposure at 10 min post IV dose) Muscle [2]	Tissue Distribution (% Plasma exposure at 10 min post IV dose) Sciatic Nerve [2]	Cognitive Improvement ([3]; 1 mg/kg PO)	Cognitive Improvement ([3]; 10 mg/kg PO)
CC1C(=O)N(CCC2CCC2)CC2N(C(=O)c3ccc(C(F)(F)F)cc3)CCC(=O)N12 (centres unmarked) [Compound 20]	< 30 min	> 60 min	1000 to 3000 ng·h/mL	1000 to 3000 ng/mL	1000 to 3000 ng·h/mL	100 to 999 ng/mL	0.1 to 0.5	0.5 to 0.9	++++ (++++ indicates distribution above 70%)	++++ (++++ indicates distribution above 70%)	++++ (++++ indicates distribution above 70%)	+++ (+++ indicates distribution between 40 and 69%)	–	++++ (++++ indicates distribution above 70%)	–	–
CCC(C)CN1CC2N(C(=O)c3ccc(F)cc3)CCC(=O)N2C(C)C1=O (centres unmarked) [Compound 11, 1-(4-fluorobenzoyl)-6-methyl-8-(2-methylbutyl)hexahydro-4H-pyrazino[1,2-a]pyrimidine-4,7(6H)-dione]	< 30 min	< 30 min	1000 to 3000 ng·h/mL	100 to 999 ng/mL	100 to 999 ng·h/mL	100 to 999 ng/mL	< 0.1	0.1 to 0.5	++ (++ indicates distribution between 5 and 39%)	+ (+ indicates distribution between 0.05 and 5%)	+ (+ indicates distribution between 0.05 and 5%)	+ (+ indicates distribution between 0.05 and 5%)	–	++ (++ indicates distribution between 5 and 39%)	–	–
CCC(C)CN1CC2N(C(=O)c3ccc(C(F)(F)F)c(Cl)c3)CCC(=O)N2C(C)C1=O (centres unmarked) [Compound 12, 1-(3-chloro-4-(trifluoromethyl)benzoyl)-6-methyl-8-(2-methylbutyl)hexahydro-4H-pyrazino[1,2-a]pyrimidine-4,7(6H)-dione]	< 30 min	> 60 min	100 to 999 ng·h/mL	100 to 999 ng/mL	100 to 999 ng·h/mL	1 to 100 ng/mL	0.1 to 0.5	0.1 to 0.5	++ (++ indicates distribution between 5 and 39%)	++ (++ indicates distribution between 5 and 39%)	++ (++ indicates distribution between 5 and 39%)	++ (++ indicates distribution between 5 and 39%)	–	+++ (+++ indicates distribution between 40 and 69%)	–	–
C=CCCN1CC2N(C(=O)c3ccc(C(F)(F)F)cc3)CCC(=O)N2C(C)C1=O (centres unmarked) [Compound 22]	< 30 min	30 to 60 min	1000 to 3000 ng·h/mL	100 to 999 ng/mL	100 to 999 ng·h/mL	100 to 999 ng/mL	0.1 to 0.5	> 0.9	++ (++ indicates distribution between 5 and 39%)	++ (++ indicates distribution between 5 and 39%)	++ (++ indicates distribution between 5 and 39%)	++ (++ indicates distribution between 5 and 39%)	–	+++ (+++ indicates distribution between 40 and 69%)	–	–
CC1C(=O)N(CC2CCC2)CC2N(C(=O)c3ccc(OC(F)F)cc3)CCC(=O)N12 (centres unmarked) [Compound 14]	< 30 min	> 60 min	1000 to 3000 ng·h/mL	100 to 999 ng/mL	1000 to 3000 ng·h/mL	100 to 999 ng/mL	0.1 to 0.5	> 0.9	++ (++ indicates distribution between 5 and 39%)	++ (++ indicates distribution between 5 and 39%)	++ (++ indicates distribution between 5 and 39%)	++ (++ indicates distribution between 5 and 39%)	–	++ (++ indicates distribution between 5 and 39%)	–	–

Continued, in another order:

Tmax (In vivo pharmacokinetics; [4])	Tmax (In vivo pharmacokinetics; [5])	AUC (In vivo pharmacokinetics; [6])	Cmax (In vivo pharmacokinetics; [7])	AUC (In vivo pharmacokinetics; [8])	Cmax (In vivo pharmacokinetics; [9])	fraction unbound at 4 h [1, 10]	fraction unbound at 4 h [1, 11]	SMILES	Tissue Distribution (% Plasma exposure at 10 min post IV dose) Brain [2]	Tissue Distribution (% Plasma exposure at 10 min post IV dose) Cerebellum [2]	Tissue Distribution (% Plasma exposure at 10 min post IV dose) Cortex [2]	Tissue Distribution (% Plasma exposure at 10 min post IV dose) Hippocampus [2]	Tissue Distribution (% Plasma exposure at 10 min post IV dose) Muscle [2]	Tissue Distribution (% Plasma exposure at 10 min post IV dose) Sciatic Nerve [2]	Cognitive Improvement ([3]; 1 mg/kg PO)	Cognitive Improvement ([3]; 10 mg/kg PO)
< 30 min	30 to 60 min	> 3000 ng·h/mL	> 3000 ng/mL	1 to 100 ng·h/mL	1 to 100 ng/mL	> 0.9	0.5 to 0.9	CCC(C)CN1CC2N(Cc3ccc(O)nc3)CCC(=O)N2[C@@H](C)C1=O (some centres unmarked) [Compound 7a]	+ (+ indicates distribution between 0.05 and 5%)	+ (+ indicates distribution between 0.05 and 5%)	+ (+ indicates distribution between 0.05 and 5%)	+ (+ indicates distribution between 0.05 and 5%)	++ (++ indicates distribution between 5 and 39%)	++++ (++++ indicates distribution above 70%)	–	–
< 30 min	30 to 60 min	1000 to 3000 ng·h/mL	1000 to 3000 ng/mL	1 to 100 ng·h/mL	1 to 100 ng/mL	0.1 to 0.5	< 0.1	CCC(C)CN1CC2N(Cc3ccc(OC(F)F)cc3)CCC(=O)N2[C@@H](C)C1=O (some centres unmarked) [Compound 6a]	++ (++ indicates distribution between 5 and 39%)	++ (++ indicates distribution between 5 and 39%)	++ (++ indicates distribution between 5 and 39%)	++ (++ indicates distribution between 5 and 39%)	++++ (++++ indicates distribution above 70%)	++++ (++++ indicates distribution above 70%)	− (− indicates post-test p-value above 0.06)	++ (++ indicates post-test p-value between 0.05 and 0.01)
< 30 min	30 to 60 min	100 to 999 ng·h/mL	100 to 999 ng/mL	1 to 100 ng·h/mL	1 to 100 ng/mL	< 0.1	< 0.1	CCC(C)CN1CC2N(Cc3ccc(C(F)(F)F)cc3)CCC(=O)N2[C@@H](C)C1=O (some centres unmarked) [Compound 5a]	++++ (++++ indicates distribution above 70%)	++++ (++++ indicates distribution above 70%)	++++ (++++ indicates distribution above 70%)	++++ (++++ indicates distribution above 70%)	–	–	–	–
